Read-outs that look alike come from different tables or passages of the source.

For 20 compounds, IC50 results are on record in US20250051327A1, “MALT-1 MODULATORS” (EXSCIENTIA AI LIMITED, priority 2020, published 2025).

Assay [1] deals with Recombinant human MALT-1 (amino acids 340-824) (Homo sapiens (Human), UniProt Q9UDY8). Description: MALT-1 inhibition assay (fluorogenic substrate Ac-LRSR-Rh110-DP). In kind it is biochemical. The note with it: recombinant human MALT-1, substrate Ac-LRSR-Rh110-DP. An outline of the steps: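 MALT-1 at 3 nM final was reacted with 10 μM Ac-LRSR-Rh110-DP, with substrate addition starting the reaction. Incubation ran 60 minutes at 25° C in the dark. Percent inhibition from fluorescence across doses was fitted to a 4-parameter logistic to give IC50.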
Chain of Recombinant human MALT-1 (amino acids 340-824) (Q9UDY8 340-824): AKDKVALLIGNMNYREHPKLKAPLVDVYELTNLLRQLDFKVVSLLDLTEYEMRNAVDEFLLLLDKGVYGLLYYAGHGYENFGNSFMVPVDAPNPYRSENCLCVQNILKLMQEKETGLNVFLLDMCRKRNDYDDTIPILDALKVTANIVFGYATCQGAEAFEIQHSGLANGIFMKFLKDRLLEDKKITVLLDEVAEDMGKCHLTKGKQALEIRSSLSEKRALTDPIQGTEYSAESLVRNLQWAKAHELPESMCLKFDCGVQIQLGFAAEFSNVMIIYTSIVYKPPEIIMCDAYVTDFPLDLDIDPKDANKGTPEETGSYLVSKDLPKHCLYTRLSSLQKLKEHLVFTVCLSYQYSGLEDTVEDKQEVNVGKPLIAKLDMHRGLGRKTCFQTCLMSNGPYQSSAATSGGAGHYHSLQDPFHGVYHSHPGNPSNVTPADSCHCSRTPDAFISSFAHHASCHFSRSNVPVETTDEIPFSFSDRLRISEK

For assay [2], the system named is IL-2 secretion by human effector memory T cells (TEM). The assay can be described thus: Effector memory T cells IL-2 release assay. The settings on record: human CD4+ effector memory T cells, CD3/CD28 bead stimulation, 24 h, read-out: CD4TC IL2 IC50. In kind it is cell-based. The procedure, abridged: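 Human CD4+ effector memory T cells from healthy-donor buffy coats were stimulated with anti-CD3/CD28 Dynabeads and exposed to 10 semi-log compound doses (0.1% DMSO) for 24 h at 37 °C. Supernatant IL-2 was measured by HTRF, and IC50 came from a 4-parameter logistic fit to maximal IL-2. Viability was checked by flow cytometry.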

What is called IC50 is the concentration that gives 50% inhibition. For `CN(C(=O)C1CN(C(=O)[C@@H]2CCO2)C1)[C@@H](c1ccc(N2CCCc3c2cnc2cc(Cl)nn32)cc1)C(F)(F)F` (relative stereo) [CPD0073563, N-[(1S)-1-(4-{4-chloro-2,3,7,10-tetraazatricyclo[7.4.0.0^2,6]trideca-1(9),3,5,7-tetraen-10-yl}phenyl)-2,2,2-trifluoroethyl]-N-methyl-1-[(2rel-S)-oxetane-2-carbonyl]azetidine-3-carboxamide], the IC50 stood at 62 nM in assay [1] and 269 nM in assay [2] (T-cell).
On the same counts, the results for `CN(C(=O)C1(C#N)CCS(=O)(=O)CC1)[C@@H](c1ccc(N2CCCc3c2cnc2cc(Cl)nn32)cc1)C(F)(F)F` [CPD0073553, N-[(1S)-1-(4-{4-chloro-2,3,7,10-tetraazatricyclo[7.4.0.0^2,6]trideca-1(9),3,5,7-tetraen-10-yl}phenyl)-2,2,2-trifluoroethyl]-4-cyano-N-methyl-1,1-dioxo-1λ^6-thiane-4-carboxamide] are 50 nM and 77 nM.
On the same counts, the results for `COC(C)c1c(Nc2ccc([C@H](N(C)C(=O)C3CCS(=O)(=O)CC3)C(F)(F)F)cc2)cnn2cc(Cl)nc12` (stereo partly drawn) [CPD0072526, N-[(1S)-1-[4-[[2-chloro-8-(1-methoxyethyl)imidazo[1,2-b]pyridazin-7-yl]amino]phenyl]-2,2,2-trifluoro-ethyl]-N-methyl-1,1-dioxo-thiane-4-carboxamide] are 47 nM and 71 nM.
Consider `CC1CCc2c(cnc3cc(Cl)nn23)N1c1ccc([C@H](N(C)C(=O)C2CCS(=O)(=O)CC2)C(F)(F)F)cc1` (stereo partly drawn) [CPD0072806, N-[(1S)-1-{4-[(11rel-R)-4-chloro-11-methyl-2,3,7,10-tetraazatricyclo[7.4.0.0^2,6]trideca-1(9),3,5,7-tetraen-10-yl]phenyl}-2,2,2-trifluoroethyl]-N-methyl-1,1-dioxo-1λ^6-thiane-4-carboxamide], for which the half-inhibitory concentration (IC50) in assay [1] worked out at 69 nM; in assay [2], 206 nM.
Take `CN(C(=O)C12CN(C1)S(=O)(=O)C2)[C@@H](c1ccc(N2CCCc3c2cnc2cc(Cl)nn32)cc1)C(F)(F)F` [CPD0073087, N-[(1S)-1-(4-{4-chloro-2,3,7,10-tetraazatricyclo[7.4.0.0^2,6]trideca-1(9),3,5,7-tetraen-10-yl}phenyl)-2,2,2-trifluoroethyl]-N-methyl-2,2-dioxo-2λ^6-thia-1-azabicyclo[2.1.1]hexane-4-carboxamide]: the half-maximal inhibitory concentration (IC50) was found to be 78 nM in assay [1] and 103 nM in assay [2] (T-cell).
On to `COCC(=O)N1CC[C@@H](C(=O)N(C)[C@@H](c2ccc(N3CCCc4c3cnc3cc(Cl)nn43)cc2)C(F)(F)F)C1` (relative stereo) [CPD0075875, (3rel-S)-N-[(1S)-1-[4-(4-chloro-2,3,7,10-tetrazatricyclo[7.4.0.0^2,6]trideca-1(9),3,5,7-tetraen-10-yl)phenyl]-2,2,2-trifluoro-ethyl]-1-(2-methoxyacetyl)-N-methyl-pyrrolidine-3-carboxamide], for which the IC50 in assay [1] turned out to be 85 nM; in assay [2] (T-cell), 116 nM.
On the same counts, the results for `CN1CC[C@@H](C(=O)N(C)[C@@H](c2ccc(N3CCCc4c3cnc3cc(Cl)nn43)cc2)C(F)(F)F)CC1=O` (relative stereo) [CPD0073142, (4rel-R)-N-[(1S)-1-(4-{4-chloro-2,3,7,10-tetraazatricyclo[7.4.0.0^2,6]trideca-1(9),3,5,7-tetraen-10-yl}phenyl)-2,2,2-trifluoroethyl]-N,1-dimethyl-2-oxopiperidine-4-carboxamide] are 68 nM and 122 nM.
On the same counts, the results for `CN(C(=O)Cc1ccccc1O)[C@@H](c1ccc(N2CCCc3c2cnc2cc(Cl)nn32)cc1)C(F)(F)F` [CPD0019350, N-[(1S)-1-(4-{4-chloro-2,3,7,10-tetraazatricyclo[7.4.0.0^2,6]trideca-1(9),3,5,7-tetraen-10-yl}phenyl)-2,2,2-trifluoroethyl]-2-(2-hydroxyphenyl)-N-methylacetamide] are 70 nM and 103 nM.
On the same counts, the results for `CC(C)C(=O)N(C)[C@@H](c1ccc(N2CCCc3c2cnc2cc(Cl)nn32)cc1)C(F)(F)F` [CPD0019340, N-[(1S)-1-(4-{4-chloro-2,3,7,10-tetraazatricyclo[7.4.0.0^2,6]trideca-1(9),3,5,7-tetraen-10-yl}phenyl)-2,2,2-trifluoroethyl]-N,2-dimethylpropanamide] are 130 nM and 139 nM.
Take `CN(C)CC(=O)N1CC[C@H](C(=O)N(C)[C@@H](c2ccc(N3CCCc4c3cnc3cc(Cl)nn43)cc2)C(F)(F)F)C1` (relative stereo) [CPD0075876, (3rel-R)-N-[(1S)-1-[4-(4-chloro-2,3,7,10-tetrazatricyclo[7.4.0.0^2,6]trideca-1(9),3,5,7-tetraen-10-yl)phenyl]-2,2,2-trifluoro-ethyl]-1-[2-(dimethylamino)acetyl]-N-methyl-pyrrolidine-3-carboxamide]: the half-maximal inhibitory concentration (IC50) in assay [1] amounted to 138 nM; in assay [2] (T-cell), 207 nM.
On the same counts, the results for `COc1cc([C@H](N(C)C(=O)C2CCS(=O)(=O)CC2)C(F)(F)F)ccc1N1CCCc2c1cnc1cc(Cl)nn21` [CPD0073040, N-[(1S)-1-(4-{4-chloro-2,3,7,10-tetraazatricyclo[7.4.0.0^2,6]trideca-1(9),3,5,7-tetraen-10-yl}-3-methoxyphenyl)-2,2,2-trifluoroethyl]-N-methyl-1,1-dioxo-1λ^6-thiane-4-carboxamide] are 368 nM and 642 nM.
On the same counts, the results for `CC(=O)N(C)[C@@H](c1ccc(N2CCCc3c2cnc2cc(Cl)nn32)cc1)C(F)(F)F` [CPD0019349, N-[(1S)-1-(4-{4-chloro-2,3,7,10-tetraazatricyclo[7.4.0.0^2,6]trideca-1(9),3,5,7-tetraen-10-yl}phenyl)-2,2,2-trifluoroethyl]-N-methylacetamide] are 230 nM and 83 nM.
On the same counts, the results for `CN(C(=O)CN1CCCS1(=O)=O)[C@@H](c1ccc(N2CCCc3c2cnc2cc(Cl)nn32)cc1)C(F)(F)F` [CPD0073085, N-[(1S)-1-(4-{4-chloro-2,3,7,10-tetraazatricyclo[7.4.0.0^2,6]trideca-1(9),3,5,7-tetraen-10-yl}phenyl)-2,2,2-trifluoroethyl]-2-(1,1-dioxo-1λ^6,2-thiazolidin-2-yl)-N-methylacetamide] are 154 nM and 286 nM.
As to `CN(C(=O)[C@H]1CNC(=O)O1)[C@@H](c1ccc(N2CCCc3c2cnc2cc(Cl)nn32)cc1)C(F)(F)F` (single isomer, unassigned) [CPD0075576], the IC50 in assay [1] was determined as 46 nM; in assay [2] (T-cell), 57 nM.
On the same counts, the results for `COc1ccc2ncc3c(c2n1)C(O)CCN3c1ccc([C@H](N(C)C(=O)C2CCS(=O)(=O)CC2)C(F)(F)F)cc1` (stereo partly drawn) [CPD0072449, N-methyl-1,1-dioxo-N-[(1S)-2,2,2-trifluoro-1-[4-(10-hydroxy-2-methoxy-9,10-dihydro-8H-pyrido[2,3-f][1,7]naphthyridin-7-yl)phenyl]ethyl]thiane-4-carboxamide] are 432 nM and 940 nM.
On to `CN(C(=O)C1CCS(=O)(=O)CC1)[C@@H](c1ccc(N2CCCc3c2cnc2c(Cl)cnn32)cc1)C(F)(F)F` [CPD0021751, N-[(1S)-1-(4-{5-chloro-2,3,7,10-tetraazatricyclo[7.4.0.0^2,6]trideca-1(9),3,5,7-tetraen-10-yl}phenyl)-2,2,2-trifluoroethyl]-N-methyl-1,1-dioxo-1λ^6-thiane-4-carboxamide], for which the 50% inhibitory concentration (IC50) worked out at 2120 nM in assay [1] and 3280 nM in assay [2] (T-cell).
For the compound `CN(C(=O)CN1C(=O)COC1=O)[C@@H](c1ccc(N2CCCc3c2cnc2cc(Cl)nn32)cc1)C(F)(F)F` [CPD0073237, N-[(1S)-1-(4-{4-chloro-2,3,7,10-tetraazatricyclo[7.4.0.0^2,6]trideca-1(9),3,5,7-tetraen-10-yl}phenyl)-2,2,2-trifluoroethyl]-2-(2,4-dioxo-1,3-oxazolidin-3-yl)-N-methylacetamide], the IC50 in assay [1] came out at 174 nM; in assay [2] (T-cell), 513 nM.
On the same counts, the results for `CC(=O)N1CCC(C(=O)N(C)[C@@H](c2ccc(N3CC[C@H](C)c4c3cnc3cc(Cl)nn43)cc2)C(F)(F)F)CC1` (relative stereo) [CPD0074566, 1-Acetyl-N-[(1S)-1-[4-[(13rel-R)-4-chloro-13-methyl-2,3,7,10-tetrazatricyclo[7.4.0.0^2,6]trideca-1(9),3,5,7-tetraen-10-yl]phenyl]-2,2,2-trifluoro-ethyl]-N-methyl-piperidine-4-carboxamide] are 54 nM and 58 nM.
On the same counts, the results for `CN(C(=O)C1CC(O)C1)[C@@H](c1ccc(N2CCCc3c2cnc2cc(Cl)nn32)cc1)C(F)(F)F` (stereo partly drawn) [CPD0021565, N-[(1S)-1-(4-{4-chloro-2,3,7,10-tetraazatricyclo[7.4.0.0^2,6]trideca-1(9),3,5,7-tetraen-10-yl}phenyl)-2,2,2-trifluoroethyl]-3-hydroxy-N-methylcyclobutane-1-carboxamide] are 84 nM and 86 nM.
Regarding `CCC(O)C(=O)N(C)[C@@H](c1ccc(N2CCCc3c2cnc2cc(Cl)nn32)cc1)C(F)(F)F` (stereo partly drawn) [CPD0021576, N-[(1S)-1-(4-{4-chloro-2,3,7,10-tetraazatricyclo[7.4.0.0^2,6]trideca-1(9),3,5,7-tetraen-10-yl}phenyl)-2,2,2-trifluoroethyl]-2-hydroxy-N-methylbutanamide], the IC50 in assay [1] was determined as 146 nM; in assay [2] (T-cell), 333 nM.
